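Interpolation was linear, between the two tested concentrations surrounding the appropriate level; five concentrations were tested over 48 hours in 96-well plates. Definition used: TGI = concentration required for complete inhibition of growth.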
How the values were obtained:
Experiment in all cases: DTP human tumour cell line panel, 48 h
UO-31 renal = test system: UO-31 renal
MOLT-4 leukemia = test system: MOLT-4 leukemia
HT29 colon = test system: HT29 colon
SW-620 colon = test system: SW-620 colon
HOP-62 NSCLC = test system: HOP-62 NSCLC
SK-OV-3 ovarian = test system: SK-OV-3 ovarian
ACHN renal = test system: ACHN renal
A549 NSCLC = test system: A549 NSCLC
COLO 205 colon = test system: COLO 205 colon
RPMI-8226 leukemia = test system: RPMI-8226 leukemia
OVCAR-3 ovarian = test system: OVCAR-3 ovarian
NCI-H226 lung = test system: NCI-H226 lung
HOP-92 NSCLC = test system: HOP-92 NSCLC
U251 CNS = test system: U251 CNS
UACC-62 melanoma = test system: UACC-62 melanoma
HL-60(TB) leukemia = test system: HL-60(TB) leukemia
CCRF-CEM leukemia = test system: CCRF-CEM leukemia
PC-3 prostate = test system: PC-3 prostate
DU-145 prostate = test system: DU-145 prostate
RXF 393 renal = test system: RXF 393 renal

Compound | TGI (UO-31 renal) [µM] | TGI (MOLT-4 leukemia) [µM] | TGI (HT29 colon) [µM] | TGI (SW-620 colon) [µM] | TGI (HOP-62 NSCLC) [µM] | TGI (SK-OV-3 ovarian) [µM] | TGI (ACHN renal) [µM] | TGI (A549 NSCLC) [µM] | TGI (COLO 205 colon) [µM] | TGI (RPMI-8226 leukemia) [µM] | TGI (OVCAR-3 ovarian) [µM] | TGI (NCI-H226 lung) [µM] | TGI (HOP-92 NSCLC) [µM] | TGI (U251 CNS) [µM] | TGI (UACC-62 melanoma) [µM] | TGI (HL-60(TB) leukemia) [µM] | TGI (CCRF-CEM leukemia) [µM] | TGI (PC-3 prostate) [µM] | TGI (DU-145 prostate) [µM] | TGI (RXF 393 renal) [µM]
S=C1NCCN1 | > 100 | > 100 | > 100 | > 100 | > 100 | > 100 | > 100 | > 100 | > 100 | > 100 | > 100 | > 100 | > 100 | > 100 | > 100 | > 100 | > 100 |  |  | 
O=C1N(C2CCCCC2)C(=O)N1C1CCCCC1 | 0.199 | 10.2 | 25.3 | 26.4 | 31.5 | 59.9 | 12 | > 54.5 | 16.2 | 0.935 | > 100 | 11.3 | 19.5 | 18.7 | 1.9 | 0.365 | 2.07 | > 45.7 | > 58.9 | 
CN(CC(=O)N1CC(CCl)c2ccc([N+](=O)[O-])cc21)CC(=O)N1CC(CCl)c2ccc([N+](=O)[O-])cc21 (configuration not stated) | > 100 | > 100 | > 100 | > 100 | > 100 | > 100 | > 100 | > 100 | > 100 | > 100 | > 100 | > 100 | > 100 | > 100 | > 100 | > 100 | > 100 | > 100 | > 100 | 
COc1cc2c(c(OC)c1O)-c1ccc(SC)c(=O)cc1C(NC(C)=O)CC2 (configuration not stated) | > 100 | > 100 | > 100 | > 100 | > 100 | > 100 | > 100 | > 100 | 0.0209 | > 100 | 0.0142 | > 16.7 | > 100 | > 5.55 | > 100 |  | > 100 |  |  | > 100
CC1=CC(=O)[C@@H](O)[C@]2(C)[C@H]3[C@@]4(O)OC[C@]35[C@H]([C@@H](C)[C@H]4O)[C@@H](OC(=O)C(C)(C)CO)C(=O)O[C@@H]5C[C@@H]12 | 2.44 |  | 10.4 | > 27.6 | 1.63 | > 81.4 | 1.33 | 41.5 | 7 | 0.0968 | 1.92 | 0.553 |  |  | 0.86 | > 100 |  | 4.84 |  | 2.23
CSC1=C(C#N)C(=S)N=C(N)C1C(=O)Nc1ccc(C)cc1 (configuration not stated) | > 100 | > 100 | > 100 | > 100 |  | > 100 |  | > 100 | > 100 | > 100 | > 100 | > 100 |  | > 100 | > 100 | > 100 | > 100 | > 100 | > 100 | > 100
O=C(CSC(=S)N1CCCCC1)Nc1nc2c(s1)CCCC2 | > 100 | 47.8 | > 100 | > 100 | > 100 | > 100 | > 100 | > 100 | > 100 | > 100 |  | > 100 | 94.3 | > 100 |  | 33.8 | > 100 |  |  | 
Cc1cc(=O)[nH]c(NNC(C#N)c2cccc(O)c2)n1 (configuration not stated) | > 100 | > 100 | > 100 | > 100 | > 100 | > 100 | > 100 | > 100 | > 100 | > 100 | > 100 | > 100 | > 100 | > 100 | > 100 | > 100 | > 100 |  |  | > 100
COC(=O)NC(Nc1ccccn1)(C(F)(F)F)C(F)(F)F | > 100 | > 100 | > 100 | > 100 | > 100 | > 100 | > 100 | > 100 |  | > 100 | > 100 | > 100 | > 100 | > 100 | > 100 | > 100 | > 100 |  | > 100 | > 100
Cc1c(-c2ccc(O)cc2)n(CCCCCCNCCOC(=O)NCCCc2ccc(N(CCCl)CCCl)cc2)c2ccc(O)cc12 |  | 2.92 | 3.09 | 5.37 | 8.57 | 22.4 | 14.1 | 3.93 | 7.57 | 2.98 | 6.41 |  |  | 13.5 | 3.26 |  | 6.67 | 11.4 | 3.97 | 
COc1cc2c(cc1OC)[C@@H]1[C@H](C#N)C(=O)C(C)(C)N1CC2 | > 100 | > 100 | > 100 | > 100 |  | > 100 | > 100 | > 100 | > 100 | > 100 | > 100 | > 100 | > 100 | > 100 | > 100 | > 100 | > 100 | > 100 | > 100 | 
COc1c2c(cc3c1C(=O)c1c(O)cccc1C3=O)CC(O)CC2 (configuration not stated) | > 100 | > 100 | > 100 | > 100 | 46 | 59 | > 100 | > 100 | > 100 |  | > 100 | > 100 | 40.1 | > 100 | > 100 | > 100 | > 100 | > 100 | > 100 | 
COc1ccc(/C=c2/sc3n(c2=O)C(c2ccccc2)C2(O)CCCCC2N=3)cc1 (configuration not stated) | > 12.5 | > 12.5 | > 12.5 | > 12.5 | > 12.5 |  | > 12.5 | > 12.5 |  | > 12.5 | > 12.5 | > 12.5 |  | > 12.5 | > 12.5 | > 12.5 | > 12.5 | > 12.5 |  | 
Cc1cccc2oc3c(CC(=O)O)cccc3c(=O)c12 | > 100 | > 100 | > 100 | > 100 | > 100 |  | > 100 | > 100 | > 100 | > 100 | > 100 | > 100 | > 100 | > 100 |  | > 100 | > 100 | > 100 | > 100 | 
COc1cc(-c2ccc(Br)[nH]2)[nH]c1C=NCC(C)C | 4.77 | 4.04 | 3.54 |  | 3.39 | 6.91 | 4.19 | 3.62 | 2.48 | 2.67 | 3.79 |  | 4.01 | 3.88 | 7.33 | 3.9 | 3.24 | 4.39 | 2.9 | 
CCCCS(=O)(=O)CCC(N)P(=O)(O)O (configuration not stated) | > 100 | > 100 | > 100 | > 100 | > 100 | > 100 | > 100 | > 100 | > 100 | > 100 | > 100 | > 100 | > 100 | > 100 | > 100 | > 100 | > 100 | > 100 | > 100 | 
Cc1ccc(Cc2n[nH]c(=O)[nH]2)cc1 | > 100 | > 100 | > 100 | > 100 | > 100 | > 100 | > 100 | > 100 | > 100 |  | > 100 | > 100 | > 100 | > 100 | > 100 | > 100 | > 100 | > 100 | > 100 | 
O=C(NC(=S)Nc1ccc(Br)cc1)c1ccc2c(c1)Sc1ccccc1S2 | 26.6 | 26.7 | 95.1 | > 100 | 31 | 33 | 34.2 | 48.6 | > 100 |  | 41.2 | 47.7 | 32.5 | 35 | 74.8 | 42.7 | 54.1 | > 100 | 32.4 | 
CSCCCN(CCCSC)CCCSC | > 100 | > 100 | > 100 | > 100 | > 100 | > 100 |  | > 100 | > 100 |  | > 100 |  |  | > 100 | > 100 | 50.7 | > 100 | > 100 | > 100 | 
Cc1c2n(c(=O)[nH]c1=O)C1OC(CO)C(O2)C1N=[N+]=[N-] (configuration not stated) | > 100 | > 100 | > 100 | > 100 | > 100 | > 100 | > 100 | > 100 | > 100 | > 100 | > 100 | > 100 | > 100 | > 100 | > 100 | > 100 | > 100 |  |  | 
C[n+]1c2ccccc2c(NCC(=O)O)c2ccccc21 | > 100 | > 100 | > 100 | > 100 | > 100 | > 100 | > 100 | > 100 | > 100 | > 100 | > 100 | > 100 |  | > 100 | > 100 | > 100 |  |  |  | > 100
COc1ccc(NC(=S)Nc2cc(C)cc(C)n2)cc1 | > 100 | > 100 | > 100 | > 100 | > 100 | > 100 |  | > 100 | > 100 | > 100 | > 100 | > 100 |  | > 100 | > 100 | > 100 | > 100 | > 100 | > 100 | > 100
C=CC[C@H]1O[Si](C(C)(C)C)(C(C)(C)C)[C@H](C)[C@H]1C | > 100 | > 100 | > 100 | > 100 | > 100 | > 100 | > 100 | > 100 | > 100 |  | > 100 | > 100 | > 100 | > 100 | > 100 | > 100 | > 100 | > 100 |  | 
Cc1ccc2c(c1)[nH]c(=S)n2C=C(C(N)=O)C(N)=O | > 100 |  | > 100 | > 100 | > 100 | > 100 | > 100 | > 100 | > 100 |  | > 100 | > 100 | > 100 | > 100 | > 100 | > 100 |  |  | > 100 | > 100
NC1c2c(Br)sc(N3CCCC3)c2C(=O)C1O (configuration not stated) | > 50 | > 50 | > 50 | > 50 |  | > 50 | > 50 | > 50 | > 50 |  | > 50 | > 50 | > 50 | > 50 | > 50 | > 50 | > 50 | > 50 | > 50 | 
C1=CC2(C=CC13O[C@H](C1CCCCC1)[C@@H](C1CCCCC1)O3)O[C@H](C1CCCCC1)[C@@H](C1CCCCC1)O2 | > 50 | > 50 | > 50 | > 50 | > 50 | > 50 | > 50 | > 50 | > 50 | > 50 | > 50 | > 50 |  | > 50 | > 50 | > 50 |  | > 50 | > 50 | > 50
Cc1ccc(Nc2nc(=O)c3c4ccccc4n(C(=O)OC(C)(C)C)c3s2)cc1 | 22.8 | > 100 | > 100 | > 100 | 64.1 | > 100 | > 100 | > 100 | > 100 | 48.7 | 55.7 |  | > 100 | > 100 | 63.5 | 59 | > 100 | > 100 | > 100 | 

Source: PubChem BioAssay (NCI)
